What was measured:
[1] = tested on: hippocampal cytokine mRNA (Il1b, Il6, Tnfa, Il10); assay: Hippocampal cytokine mRNA (qRT-PCR) after co-injection of LPS and lumateperone; assay type: in vivo, mouse; details: mice, 2 h, relative change normalized to control (Dct method)
Procedure: (§1) All other reagents are obtained in the highest purity available from Sigma-Aldrich (St. Louis, MO) unless otherwise noted. […] Some rodents are given a cotreatment with a subcutaneous (SC) injection of lipopolysaccharide (LPS, 500 μg/kg; Sigma-Aldrich, ref #0127:B8) diluted in 0.9% injectable saline while control group animals receive injections of all vehicles matching the experimental conditions. […] On day 2, either no injection for naïve rats, or saline or LPS is injected (1 mg/kg, SC).
Animals. Adult, male C57BL/6 mice weighing 28-30 grams at the time of the experiment are housed in groups of 4 or 5 in small cages. Adult, male Sprague-Dawley rats weighing 175-200 grams at the time of arrival after shipping are housed in pairs. All animals are housed under standard laboratory housing conditions with a 12-hour light/dark cycle and ad libitum access to food and water.
(§2) Tissue Collection. […] Rats are euthanized 18 hours after LPS injection for sample collection. Hippocampi from mice and rats are rapidly dissected under RNAse-free conditions and placed in 1.5 mL Eppendorf tubes. When appropriate, samples are snap frozen in liquid nitrogen prior to storage at −80° C. until further analysis. Trunk blood is collected from mice into serum collection tubes, allowed to clot at room temperature for 1 hour, then centrifuged at 1,500 g for 10 minutes at 4° C.
Quantitative Real-Time PCR. Mouse hippocampal tissue is homogenized with glass beads in 1 mL of TRIzol reagent using a BeadBeater (Biospec Products, Bartlesville, OK). Heavy phase-lock gel tubes enabled separation of phases following the addition of 400 μL chloroform to the sample and centrifugation at 12,000 rpm for 10 minutes at room temperature. RNA is extracted using Qiagen Rneasy kit (Qiagen, Hilden, Germany). For cDNA synthesis, 2 μg of total RNA is used (SuperScript IV Reverse Transcriptase; ThermoFisher Scientific, Waltham, MA). The purity and concentration of RNA is measured with a Nanodrop spectrophotometer; the optical density (OD) 260/280 and OD 260/230 are within 1.8-2.3. In the hippocampus, 4 key markers of pro- and anti-inflammatory cytokines and chemokines (Il1b: ID Mm00434228_m1, Tnfa: ID Mm00443258_m1, 116: ID Mm00446190_m1, and I110: ID Mm01288386_m1; ThermoFisher Scientific) are initially chosen for analysis (n=5-12 per group). In subsequent experiments, the transcripts for other markers of inflammation are chosen for analysis including Icam1 (ID Mm00516023_m1; a cell adhesion molecule involved in immune cell migration), Cldn5 (ID Mm00727012_s1; a tight junctions protein), colony stimulating factor 1 (Csf1: ID Mm00432686_m1; a factor that regulates microglia function) and its receptor Csf1r (ID Mm01266652_m1), and the nucleotide binding and oligomerization domain-like receptor family pyrin domain-containing 3 inflammasome complex (Nlrp3: Mm00840904_m1). Gapdh (ID Mm99999915_g1) is chosen as a housekeeping gene. QuantStudio 7 (ThermoFisher Scientific) is used for analyzing the plates (MicroAmp Optical 384-well plates; Applied Biosystems, Waltham, MA, and ThermoFisher Scientific) that are loaded with TaqMan Universal Master Mix II without uracil-DNA glycosylate in a 20 μl reaction volume using 100 ng cDNA per well. All mRNAs are measured by qRT-PCR on ABI Prism 7900HT system using TaqMan Gene Expression Assays. Ct values of genes of interest are normalized to that of the reference gene (Gapdh).
Specific cytokines are elevated in serum or plasma of patients with MDD and other psychiatric disorders. Here, the gene and protein expression of a subset of pro- and anti-inflammatory cytokines is measured in mouse brain in response to an inflammatory challenge using a single dose of LPS (500 μg/kg) to induce acute brain inflammation. […] The results are shown in Table 1A as relative change in mRNA levels for each cytokine gene (Il1b, Il6, Tnfa, Il10) normalized to the control group using the Dct method (n=5-12 per group): […]

[2] = tested on: serum cytokines IL-1b, IL-6, TNF-alpha, IL-10; assay: Serum cytokine protein (Multiplex MSD V-Plex) after LPS and lumateperone; assay type: in vivo, mouse; details: 2 h
Procedure: as §1, §2
Multiplex Assays. In mouse serum, protein levels of IL-1b, IL-6, IL-10 and TNF-alpha are measured using a V-Plex Meso Scale Discovery (MSD) Multiplex spot assay Mouse Neuroinflammation 1 panel (Meso Scale Diagnostics, Rockville, MD). All samples are run in duplicates or triplicates according to manufacturer instructions and analyzed with MSD Discovery Workbench software (Meso Scale Diagnostics).
An additional experimental group receiving an injection with lumateperone alone is included as an additional control. Protein concentration is measured using the Multiplex MSD assay V-Plex technology. Results are expressed in pg/mL, except for IL-6, which is measured in ng/mL.

Sprague-Dawley rats = assay: Open Field Test (OFT), locomotion; assay type: in vivo, rat; details: for Open field track length: rats given LPS 1 mg/kg SC, label LPS = LPS + Vehicle, label Luma = Luma 1 mg/kg IP before and after LPS, text: open field track length in meters
Procedure: Behavioral Evaluation. All behavioral tests are performed in the morning with adult male Sprague-Dawley rats (n=9-11 per group for the experiments with LPS, and n=13-14 per group for the naïve rats).
Open Field Test (OFT). Rats are placed in an open field box (76.5×76.5×40 cm^3) under dim lighting and locomotor activity over a 10 minute period is measured using ANY-Maze Software (Stoelting Co., Wood Dale, IL).
Locomotion in an open field (track length in meters) is also measured as a control. As shown in the following table, locomotor activity is […] regardless of the group: […]

[3] = Luma 0.3 mg/kg IP co-injected with LPS 500 μg/kg SC
[4] = Luma 3 mg/kg IP co-injected with LPS 500 μg/kg SC
[5] = Luma 8 mg/kg IP co-injected with LPS 500 μg/kg SC
[6] = LPS 500 μg/kg-challenged mice, label LPS = LPS alone, label Luma = LPS + Luma 3 mg/kg IP

| Compound | Hippocampal cytokine mRNA expression IL-6 [1, 3] | Hippocampal cytokine mRNA expression IL-10 [1, 3] | Hippocampal cytokine mRNA expression TNF-alpha [1, 3] | Hippocampal cytokine mRNA expression IL-1b [1, 4] | Hippocampal cytokine mRNA expression IL-6 [1, 4] | Hippocampal cytokine mRNA expression TNF-alpha [1, 4] | Hippocampal cytokine mRNA expression IL-1b [1, 5] | Hippocampal cytokine mRNA expression IL-6 [1, 5] | Hippocampal cytokine mRNA expression TNF-alpha [1, 5] | Serum cytokine concentration IL-6 ([2]; mice, Luma 3 mg/kg IP alone (no LPS)) [ng/mL] | OFT locomotion (Sprague-Dawley rats; naïve rats, Luma 1 mg/kg IP on days 1 and 3, 10 minutes) [m] | Open field track length (Sprague-Dawley rats) | Hippocampal cytokine mRNA expression IL-1b ([1]; LPS 500 μg/kg SC + vehicle) | Hippocampal cytokine mRNA expression IL-6 ([1]; LPS 500 μg/kg SC + vehicle) | Hippocampal cytokine mRNA expression IL-10 ([1]; LPS 500 μg/kg SC + vehicle) | Hippocampal cytokine mRNA expression TNF-alpha ([1]; LPS 500 μg/kg SC + vehicle) | Serum cytokine concentration IL-1b [2, 6] [pg/mL] | Serum cytokine concentration IL-6 [2, 6] [ng/mL] | Serum cytokine concentration IL-10 [2, 6] [pg/mL] | Serum cytokine concentration TNF-alpha [2, 6] [pg/mL] |
| --- | --- | --- | --- | --- | --- | --- | --- | --- | --- | --- | --- | --- | --- | --- | --- | --- | --- | --- | --- | --- |
| CN1CCN2c3c(cccc31)[C@@H]1CN(CCCC(=O)c3ccc(F)cc3)CC[C@@H]12 [Luma, lumateperone] | 0.52 | −0.28 | 0.43 | 0.85 | 0.15 | −0.09 | 0.43 | 0.16 | −0.24 | 0.09 | 32.8 ± 10.2 | 12.27 | – | – | – | – | – | – | – | – |
| lipopolysaccharide [LPS, reference compound] | – | – | – | – | – | – | – | – | – | – | – | 12.81 | 2.88 | 1.03 | 0.43 | 1.75 | 6.27 | 14.52 | 980.4 | 335.3 |

— patent publication US12414948B2, “Methods” (INTRA-CELLULAR THERAPIES, INC., priority 2022, dated 2025)
